Results on 25 molecules are retold here after patent US20060258598A1, “Alpha-keto carbonyl calpain inhibitors” (priority 2003, published 2006).

Experiment [1] concerns cellular calpains in C2C12 myoblasts. The experiment in a line: Calpain inhibition assay in C2C12 myoblasts. The format is cell-based. To be noted: 2 h incubation, calcium ionophore Br-A-23187, read-out: Calp I IC50 Myoblast. In a few lines:
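Confluent C2C12 myoblasts in fusion medium (DMEM, 5% horse serum) exposed to compound for 2 h at 37 °C, then loaded with 400 μM Suc-Leu-Tyr-AMC for 20 min at room temperature in buffer with 4 mM CaCl2, HEPES pH 7.25. Calpains activated by Br-A-23187 ionophore (20 μM in added buffer); AMC fluorescence read each minute for 60 min at 37 °C to derive IC50.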

The target in another experiment is T1, 20S Proteasome (Oryctolagus cuniculus, UniProt G1T4Q9).
T1 sequence (G1T4Q9 1-263): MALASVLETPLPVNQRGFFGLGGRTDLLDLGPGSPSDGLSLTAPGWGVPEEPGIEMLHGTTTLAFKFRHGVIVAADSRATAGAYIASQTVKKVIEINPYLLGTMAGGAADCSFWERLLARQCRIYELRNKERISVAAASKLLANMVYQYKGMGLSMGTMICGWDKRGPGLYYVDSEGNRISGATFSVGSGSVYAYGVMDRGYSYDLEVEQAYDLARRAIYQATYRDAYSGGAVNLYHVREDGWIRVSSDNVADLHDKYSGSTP
The experiment in a line: 20S Proteasome assay. To be noted: substrate Suc-Leu-Leu-Val-Tyr-AMC; read-out: 20S Prot IC50. The format is biochemical, Rabbit. As to the method:
25 μl of a reaction buffer containing 400 μM of the fluorogenic substrate Suc-Leu-Leu-Val-Tyr-AMC (Bachem) are dispensed per well of a white microtiter plate. Test compounds dissolved in 0.5 μl DMSO are added. To start the reaction; 25 μl of reaction buffer containing 35 ng of enzyme (20S Proteasome, Rabbit, Calbiochem) are added. The increase in fluorescence (excitation at 360 nm; emission at 440 nm) is measured over 30 min at 30° C. at 30″. The IC50's are then determined from the slopes.

Experiment [2] concerns Primary fibroblasts from donors with Friedreich Ataxia (FRDA). The experiment in a line: BSO assay (cell viability under BSO-induced oxidative stress). It is filed as cell-based, human. To be noted: 24 h preincubation, 1 mM BSO; for EC50: Homo sapiens, Fibroblast. In outline: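 FRDA patient primary fibroblasts were pretreated with compounds for 24 h, then exposed to 1 mM BSO (final) until toxicity appeared in BSO-only controls (typically 16–48 h). Viability was read by calcein AM (1.2 μM)/ethidium homodimer (4 μM) staining, 60 min RT, fluorescence 485/525 nm.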

The target in a further experiment is T2, human μ-calpain (Homo sapiens, UniProt P07384).
T2 construct: purchased Calbiochem
T2 sequence (P07384 1-714): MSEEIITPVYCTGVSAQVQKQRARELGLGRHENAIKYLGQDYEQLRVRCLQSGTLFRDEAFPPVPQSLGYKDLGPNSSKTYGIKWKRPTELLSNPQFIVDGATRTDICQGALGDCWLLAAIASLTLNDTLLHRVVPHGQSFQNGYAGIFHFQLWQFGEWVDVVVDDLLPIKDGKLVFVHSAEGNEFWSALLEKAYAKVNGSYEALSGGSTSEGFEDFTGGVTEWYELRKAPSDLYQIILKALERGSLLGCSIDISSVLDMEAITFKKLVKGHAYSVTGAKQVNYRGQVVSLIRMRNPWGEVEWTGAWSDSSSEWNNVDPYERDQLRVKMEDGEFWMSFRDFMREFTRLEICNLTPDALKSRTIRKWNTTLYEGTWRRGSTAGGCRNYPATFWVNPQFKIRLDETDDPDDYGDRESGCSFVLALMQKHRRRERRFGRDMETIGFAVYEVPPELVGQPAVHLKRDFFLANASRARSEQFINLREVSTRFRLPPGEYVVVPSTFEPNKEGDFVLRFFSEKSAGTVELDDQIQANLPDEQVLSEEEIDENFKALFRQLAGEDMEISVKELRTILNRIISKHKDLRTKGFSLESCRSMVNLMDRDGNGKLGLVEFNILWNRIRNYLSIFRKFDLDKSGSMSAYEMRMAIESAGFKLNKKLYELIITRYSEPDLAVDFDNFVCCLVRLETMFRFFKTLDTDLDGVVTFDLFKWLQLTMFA
T2 sequence (P04632 1-268 partner): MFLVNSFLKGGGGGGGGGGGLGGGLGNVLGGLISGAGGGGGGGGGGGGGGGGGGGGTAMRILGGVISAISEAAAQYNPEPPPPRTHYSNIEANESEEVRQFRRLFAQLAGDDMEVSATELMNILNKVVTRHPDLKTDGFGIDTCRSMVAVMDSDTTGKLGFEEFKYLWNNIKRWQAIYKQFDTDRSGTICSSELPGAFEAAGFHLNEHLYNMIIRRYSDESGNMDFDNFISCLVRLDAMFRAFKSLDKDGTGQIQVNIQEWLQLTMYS
The experiment in a line: Enzymatic calpain inhibition assay. It is filed as biochemical. To be noted: substrate Suc-Leu-Tyr-AMC, read-out: Calp I IC50. In a few lines: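 Human μ-calpain (0.5 μg) with 250 μM Suc-Leu-Tyr-AMC in 100 mM imidazole pH 7.5, 5 mM cysteine, 5 mM CaCl2. AMC fluorescence (ex 360/em 440 nm) followed 30 min at 30 °C; IC50 determined graphically from initial velocities versus inhibitor concentration.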

A word on the IC50: it is the concentration that inhibits the measured activity by half. The EC50 is the concentration giving half of the maximal effect. Read a low EC50 as an effect from little substance.

`CCNC(=O)C(=O)[C@H](Cc1ccc(C)cc1)NC(=O)[C@@H](NC(=O)CCCCC1CCSS1)C(C)C` (stereo partly drawn) [Example 104]: the half-maximal inhibitory concentration (IC50) came to 350 nM in experiment [1], 180 nM at 20S Proteasome and 70 nM on human μ-calpain. The molecule further yielded an EC50 in experiment [2] of 300 nM.
In the same order, the values of `CCNC(=O)C(=O)[C@H](Cc1ccc(Br)cc1)NC(=O)[C@@H](NC(=O)CCCCC1CCSS1)C(C)C` (stereo partly drawn) [Example 53] are 200 nM, 180 nM, 60 nM and 400 nM.
Taken in the same sequence, the figures for `CCNC(=O)C(=O)[C@H](Cc1ccc(Br)cc1)NC(=O)[C@H](CC(C)C)NC(=O)CCCCC1CCS[S+]1[O-]` (stereo partly drawn) [Example 65] were 1500 nM, 400 nM, 15 nM and 1000 nM.
Consider `CCNC(=O)C(=O)[C@H](Cc1ccc(OC)cc1)NC(=O)[C@@H](NC(=O)CCCCC1CCC[S+]1[O-])C(C)C` (stereo partly drawn) [Example 87], for which the IC50 is 1200 nM in experiment [1], greater than 10000 nM on 20S Proteasome and 400 nM at human μ-calpain. For the same molecule, the response in experiment [2] was half-maximal at 9000 nM (EC50).
Taken in the same sequence, the figures for `CCNC(=O)C(=O)[C@H](Cc1ccc(Cl)cc1)NC(=O)[C@@H](NC(=O)CCCCC1CCCS1)C(C)C` (stereo partly drawn) [Example 3] were 400 nM, 110 nM, 100 nM and 4000 nM.
Take `CCNC(=O)C(=O)[C@H](Cc1ccc(Br)cc1)NC(=O)[C@H](CC(C)C)NC(=O)CCCCC1SC[C@@H]2NC(=O)N[C@H]12` (stereo partly drawn) [Example 164]: the results for the IC50 (in experiment [1]; at 20S Proteasome; at human μ-calpain) were 2000 nM, greater than 1000 nM and 20 nM, respectively. Besides, in experiment [2], the “BSO EC50” value is “inactive”.
In the case of `CCNC(=O)C(=O)[C@H](Cc1ccc(OC)cc1)NC(=O)[C@@H](NC(=O)c1cccc(NC(=O)CCCCC2CCSS2)c1)C(C)C` (stereo partly drawn) [Example 197], the IC50 turned out to be 250 nM in experiment [1], 420 nM on 20S Proteasome and 46 nM on human μ-calpain.
As to `Cc1ccc(S(=O)(=O)CNC(=O)C(=O)[C@H](Cc2ccccc2)NC(=O)[C@@H](NC(=O)CCCCC2CCSS2)C(C)C)cc1` (stereo partly drawn) [Example 140], the IC50 in experiment [1] stood at 450 nM; at 20S Proteasome, 80 nM; on human μ-calpain, 150 nM. For the same molecule, in experiment [2], the EC50 is 500 nM.
Turning to `CCNC(=O)C(=O)[C@H](Cc1ccc(C(F)(F)F)cc1)NC(=O)[C@H](CC(C)C)NC(=O)CCCCC1CCSS1` (stereo partly drawn) [Example 124], the IC50 in experiment [1] was 1100 nM; at 20S Proteasome, greater than 1000 nM; at human μ-calpain it was 75 nM. The EC50 in experiment [2] was 5000 nM.
As for `CC(C)[C@H](NC(=O)CCCCC1CCSS1)C(=O)N[C@@H](Cc1ccc(Br)cc1)C(=O)C(=O)NC1CCCCC1` (stereo partly drawn) [Example 57], the values for the IC50 (in experiment [1]; on 20S Proteasome; at human μ-calpain) were 310 nM, greater than 1000 nM and 75 nM, respectively. In experiment [2], the “BSO EC50” value was “inactive”.
As for `CCNC(=O)C(=O)[C@H](Cc1ccc(C)cc1)NC(=O)[C@H](CC(C)C)NC(=O)CCCCC1CCSS1` (stereo partly drawn) [Example 110], the IC50 in experiment [1] stood at 500 nM; at 20S Proteasome, 280 nM; on human μ-calpain, 30 nM. In experiment [2], this molecule yielded an EC50 of 500 nM.
In the case of `CCNC(=O)C(=O)[C@H](Cc1ccc(F)cc1)NC(=O)[C@H](CC(C)C)NC(=O)CCCCC1CCSS1` (stereo partly drawn) [Example 39], the IC50 in experiment [1] was determined as 3000 nM; on 20S Proteasome it was 800 nM; on human μ-calpain, 35 nM. Further, the “BSO EC50” value in experiment [2] is “inactive”.
As to `CCNC(=O)C(=O)[C@H](Cc1ccc(Cl)cc1)NC(=O)[C@@H](NC(=O)CCCCC1CCSS1)C(C)C` (stereo partly drawn) [Example 1], the IC50 turned out to be 350 nM in experiment [1], 500 nM at 20S Proteasome and 60 nM on human μ-calpain. Moreover, the EC50 in experiment [2] was found to be 350 nM.
For `CCNC(=O)C(=O)[C@H](Cc1ccc(F)c(F)c1)NC(=O)[C@H](CC(C)C)NC(=O)CCCCC1CCSS1` (stereo partly drawn) [Example 47], the results for the IC50 (in experiment [1]; at 20S Proteasome; at human μ-calpain) were 400 nM, 450 nM and 40 nM, respectively.
In the same order, the values of `CCNC(=O)C(=O)[C@H](CC1CCCCC1)NC(=O)[C@H](CC(C)C)NC(=O)CCCCC1CCSS1` (stereo partly drawn) [Example 151] are 1800 nM, greater than 100000 nM and 35 nM.
On to `CCNC(=O)C(=O)[C@H](Cc1ccc(C)cc1)NC(=O)[C@@H](NC(=O)CCCCC1CCS[S+]1[O-])C(C)C` (stereo partly drawn) [Example 105], for which the IC50 in experiment [1] was determined as 1000 nM; on human μ-calpain it was 80 nM. The molecule further returned an EC50 in experiment [2] of 200 nM.
Regarding `CCNC(=O)C(=O)[C@H](Cc1ccc(F)cc1)NC(=O)[C@H](CC(C)C)NC(=O)CCCCC1CCS[S+]1[O-]` (stereo partly drawn) [Example 40], the IC50 was found to be 15000 nM in experiment [1] and 35 nM at human μ-calpain. The same molecule yielded an EC50 in experiment [2] of 3000 nM.
Take `CCNC(=O)C(=O)[C@H](Cc1ccc(Br)cc1)NC(=O)[C@@H](NC(=O)CCCCC1CCS[S+]1[O-])C(C)CC` (stereo partly drawn) [Example 75]: the results for the IC50 (in experiment [1]; at human μ-calpain) were 9000 nM and 750 nM, respectively. This molecule came in with an EC50 in experiment [2] of 6000 nM.
`CCNC(=O)C(=O)[C@H](Cc1ccccc1)NC(=O)[C@H](CC(C)(C)C)NC(=O)CCCCC1CCSS1` (stereo partly drawn) [Example 143]: the IC50 in experiment [1] is 10000 nM; on human μ-calpain, 120 nM. In addition, it took 2000 nM to reach a half-maximal effect in experiment [2] (EC50).
Taken in the same sequence, the figures for `CCNC(=O)C(=O)[C@H](Cc1ccc(Br)cc1)NC(=O)[C@H](CC(C)C)NC(=O)CNC(=O)CCCCC1CCS[S+]1[O-]` (stereo partly drawn) [Example 187] were 7500 nM, 15 nM and 20000 nM.
In the same order, the values of `CCNC(=O)C(=O)[C@H](Cc1ccccc1)NC(=O)[C@H](CC(C)C)NC(=O)CNC(=O)CCCCC1CCSS1` (stereo partly drawn) [Example 210] are 4500 nM, 40 nM and 10000 nM.
In the same order, the values of `CCNC(=O)C(=O)[C@H](Cc1ccc(Cl)cc1)NC(=O)[C@@H](NC(=O)CCNC(=O)CCCCC1CCS[S+]1[O-])C(C)C` (stereo partly drawn) [Example 173] are 40000 nM, 200 nM and 25000 nM.
With `Cc1ccc(S(=O)(=O)CNC(=O)C(=O)[C@H](Cc2ccc(Cl)cc2)NC(=O)[C@H](CC(C)C)NC(=O)CCCCC2CCS[S+]2[O-])cc1` (stereo partly drawn) [Example 26], the figures for the IC50 (in experiment [1]; at human μ-calpain) were 2000 nM and 120 nM, respectively. In experiment [2], this molecule returned an EC50 of 4000 nM.
Turning to `CCNC(=O)C(=O)[C@H](Cc1ccc(OC)cc1)NC(=O)[C@@H](NC(=O)C1(NC(=O)CCCCC2CCSS2)CCCCC1)C(C)C` (stereo partly drawn) [Example 195], the values for the IC50 (in experiment [1]; on human μ-calpain) were 1500 nM and 170 nM, respectively. Besides, the EC50 in experiment [2] came out at 5000 nM.
In the same order, the values of `CCNC(=O)C(=O)[C@@H](NC(=O)[C@@H](NC(=O)CCCCC1CCSS1)C(C)C)c1ccccc1` (stereo partly drawn) [Example 153] are 2000 nM, 400 nM and 2500 nM.
